Values joined by “and” are separate entries in the source; they are usually repeats but may differ in a detail not shown here. Identical values can stand only once.
What was measured:
[1] = system: ischaemic skeletal muscle; assay: pO2 measurement in ischaemic skeletal muscle (m. gastrocnemius, femoral artery ligated), Pt-needle electrodes; assay type: in vivo, Cat
Protocol: (§1) Cats of either sex were anaesthetized with urethane/chloralose (120/60 mg/kg i.p. In the course of the experiments, pentobarbital was injected intravenously (V. antebrachii ceph.) via a plastic tube. The intraduodenal (i.d.) application of compound weas conducted by means of a plastic catheter, which was inserted into the duodenum.
The reference electrode, and Ag/AgCl system was sputtered on the glass mantle of the cathode, or it was a separate electrode. The cathode was coated with a polystyrol and a collodium membrane. A constant voltage supply provided a polarizing voltage between 600 and 800 mV. The reducing current was measured by a nano-ampere amplifying meter. The- cathode was inserted in the tissue by means of a motor-driven micromanipulator.
A p02― electrode was inserted in the muscle tissue (m. gastrocnemius) of both hindlegs of an anaesthetized cat. After recording the p02 of the normal perfused muscle, the blood flow to one measuring site was restricted by ligating the femoral artery. […] After having reached a constant level of p02, the vehicle was given, followed by the test substance.
The mean value and the standard deviation were calculated, in order to check the significance of the effect.

[2] = system: ischaemic skeletal muscle; assay: Skeletal muscle contractility with restricted femoral blood flow; assay type: in vivo, Cat
Protocol: as §1
Cats of either sex were anaesthetized as for p02 measurement. After dissection of the skin of the calf muscles, the sciatic nerve was cut about 3 cm proximal to the knee. The tendon of the calf muscles was cut and connected with an isometric force transducer (SWEMA, SG 3). In order to maintain constant differences and a resting tension of 100 p, the hind limb was fixed at the tibia by means of a clamp. Direct stimulation of the muscles consisted of square wave pulses of a 4 msec duration at a frequency of 2 Hz and at a voltage of 50 V. In order to keep the muscles wet and at a normal temperature, the muscles were continuously superfused by means of a NaCI-solution (0.9%, 38°C). Femoral blood flow was restricted by a graded occlusion of the artery leading to a reduction of contractility by ca. 30%. After having reached a constant level of the contraction force, the vehicle (NaCI and Methocel®, respectively) was injected, followed by the test substance.

[3] = system: skeletal muscle; assay: pO2 measurement in the control (non-ligated) hind limb muscle; assay type: in vivo, Cat; conditions: individual cats
Protocol: A p02― electrode was inserted in the muscle tissue (m. gastrocnemius) of both hindlegs of an anaesthetized cat. After recording the p02 of the normal perfused muscle, the blood flow to one measuring site was restricted by ligating the femoral artery. […] The values were constant after 30 to 60 min. After having reached a constant level of p02, the vehicle was given, followed by the test substance.

[4] = Blood pressure changes during the contractility experiment; assay type: in vivo, Cat
[5] = Acute oral toxicity (LD50); conditions: mouse, in vivo; mice, per oral
[6] = Solubility in aqueous media; assay type: physicochemical

## CCCCn1c(=O)c2c(ncn2CCC(C)=O)n(CCCC)c1=O [Compound C, 1,3-di-butyl-7-(3-oxobutyl)xanthine, reference compound]
[1]; i.d., 32 mg/kg
  pO2 (mmHg) (increase): 6 (32 mg) mmHg
[2]; i.d., 12.5 mg/kg
  contractility (% initial value): 22 (12.5 mg) % initial value

## CC(=O)CCCCn1c(=O)c2c(ncn2C)n(C)c1=O [Compound B, pentoxyphylline]
[1]; hind limb art. lig., 5 mg/kg i.v., individual cats
  effect of Compound B 5 mg/kg i.v. ΔpO2 (Torr): 1.3 (p≤0.01) Torr and 1.6 (p≤0.01) Torr and 4.9 (p≤0.01) Torr and 7.3 (p≤0.01) Torr
[1]; hind limb art. lig., B 5 mg/kg i.v. vs A 125 μg/kg i.v., individual cats
  effect of Compound B in relation to Compound A (%): 22.9% and 26.6% and 0% (2×) and 17.9% and 65.6%
[1]; i.d., 12.5 mg/kg
  pO2 (mmHg) (increase): 3 (12.5 mg) mmHg
[1]; i.v., 5 mg/kg
  pO2 (mmHg) (increase): 2 (5 mg) mmHg
[2]; i.d., 32 mg/kg
  contractility (% initial value): 23 (32 mg) % initial value
[2]; i.v., 5 mg/kg
  contractility (% initial value): 9 (5 mg) % initial value
[3]; B 5 mg/kg i.v. vs A 125 μg/kg i.v.
  effect of Compound B in relation to Compound A (%): 74.3% and 0% (3×) and 27%

## CCCCn1c(=O)c2c(ncn2CC(C)=O)n(CCCC)c1=O [Compound A, 1,3-di-n-butyl-7-(2-oxopropyl)xanthine]
[1]; hind limb art. lig., 125 μg/kg i.v., individual cats
  effect of Compound A 125 μg/kg i.v. ΔpO2 (Torr): 5.6 (p≤0.01) Torr and 6.2 (p≤0.01) Torr and 7.3 (p≤0.01) Torr and 5.2 (p≤0.01) Torr and 27.1 (p≤0.01) Torr and 11.2 (p≤0.01) Torr
[1]; i.d., 50 µg/kg
  pO2 (mmHg) (increase): 4 (50 µg) mmHg
[1]; i.v., 125 µg/kg
  pO2 (mmHg) (increase): 10 (125 µg) mmHg
[4]; 50 µg/kg i.v.
  t (min), time interval to reach initial values, initial phase BP decrease: 2 min
  t (min), time interval to reach initial values, second phase BP increase: 33 min
[4]; 125 µg/kg i.v.
  t (min), time interval to reach initial values, initial phase BP decrease: 3 min
  t (min), time interval to reach initial values, second phase BP increase: 32 min
  Δ second phase BP increase X̄ ± S: +10.8 ± 8.3 percentage of initial values
[4]; 313 µg/kg i.v., n = 1
  t (min), time interval to reach initial values, initial phase BP decrease: 2 min
  t (min), time interval to reach initial values, second phase BP increase: 6 min
  Δ initial phase BP decrease: −25.0 n = 1 percentage of initial values
  Δ second phase BP increase: +15.0 n = 1 percentage of initial values
[5]
  LD50: > 1000 mg/kg
[6]
  solubility in aqueous media: only sparingly soluble
[2]; 50 µg/kg i.v.
  t (min), time interval to reach initial values, muscle contract.: >60 min
[2]; 125 µg/kg i.v.
  t (min), time interval to reach initial values, muscle contract.: >60 min
[2]; 313 µg/kg i.v., n = 1
  t (min), time interval to reach initial values, muscle contract.: >60 min
  Δ muscle contract.: +25.0 n = 1 percentage of initial values
[2]; i.d., 125 µg/kg
  contractility (% initial value): 32 (125 µg) % initial value
[2]; i.v., 50 µg/kg
  contractility (% initial value): 36 (50 µg) % initial value
[3]; 125 μg/kg i.v.
  effect of Compound A 125 μg/kg i.v. ΔpO2 (Torr): 19.3 (p≤0.01) Torr and 3.4 (p≤0.01) Torr and 13.2 (p≤0.01) Torr and 3.8 (p≤0.01) Torr and 3.5 (p≤0.01) Torr
